Reference: US10159725B2, “Composition of tumor-associated peptides and related anti-cancer vaccine for the treatment of gastric cancer and other cancers” (priority 2010, dated 2018)

Experiments:
[1] = system: CD8+ T cells; experiment: In vitro priming of CD8+ T cells with pMHC/anti-CD28 coated beads, multimer readout (in vitro immunogenicity); assay type: cell-based, human; settings: healthy HLA-A*24 donors, three stimulations; for Positive wells/wells tested [%]: at least 24 wells evaluable per peptide; for Positive donors/donors tested [%]: at least two donors evaluable per peptide
Experimental: In order to perform in vitro stimulations by artificial antigen presenting cells (aAPC) loaded with peptide-MHC complex (pMHC) and anti-CD28 antibody, we first isolated CD8 T cells from fresh HLA-A*24 leukapheresis products of healthy donors obtained from the Blood Bank Tuebingen.
Isolation of CD8+ lymphocytes was performed by positive selection using CD8 MicroBeads (Miltenyi Biotec, Bergisch-Gladbach, Germany).
Stimulations were initiated in 96-well plates by co-incubating 1×10^6 CD8+ T cells with 2×10^5 washed coated beads in 200 μl TCM supplemented with 5 ng/ml IL-12 (PromoCell) for 3-4 days at 37° C. Half of the medium was then exchanged by fresh TCM supplemented with 80 U/ml IL-2 and incubating was continued for 3-4 days at 37° C. This stimulation cycle was performed for a total of three times. […] For analysis, a BD LSRII SORP cytometer equipped with appropriate lasers and filters was used. Peptide specific cells were calculated as percentage of total CD8+ cells. Evaluation of multimeric analysis was done using the FLOWJO software (Tree Star, Oregon, USA). In vitro priming of specific multimer+ CD8+ lymphocytes was detected by appropriate gating and by comparing to negative control stimulations.

[2] = system: HLA-DR broad antigens (HLA-DR1 to DR7); experiment: ProImmune REVEAL MHC:peptide in vitro binding assay; set-up: species or system human; settings: relative to pass/fail control
Experimental: The ProImmune REVEAL™ technology employs in vitro HLA-DR assembly assays to determine the on-rates for the MHC:peptide complex as one major determinant of the binding constant of individual peptides. The assay was performed by ProImmune (Oxford, UK). At a fixed time point, the amount of intact MHC:peptide complexes is measured and compared with the amount for a pass/fail control (relative weak binder). A strong, promiscuous HLA-DR binder is included as positive control. Values indicate amount of binding for the individual peptides and HLA-DR molecules relative to the pass/fail control.
In this assay, binding was compared to that of a pass/fail control binder, and to a positive control peptide for each HLA-DR antigen.

[3] = system: anti-survivin T-cell response; experiment: T-cell response in vaccinated prostate carcinoma patients (IFN-g ELISPOT, +/-ICS); assay type: in vivo, human

Row | Sequence | Positive wells/wells tested [%] [1] | Positive donors/donors tested [%] [1] | in vitro binding to HLA-DR (in words) [2] | patients with induction of an anti-survivin T-cell response upon vaccination ([3]; among the 16 reacting patients of 19) | patients who reacted to the peptide (IFN-g ELISPOT, +/-ICS) ([3]; of the 19 patients vaccinated)
1 | LYQILQGIVF (listed as Homo sapiens) [CDC2-001] | 28% | 88% | – | – | –
2 | VYIEKNDKL (listed as Homo sapiens) [ERBB3-001] | 15% | 83% | – | – | –
3 | SYIDVLPEF (listed as Homo sapiens) [MET-006] | 22% | 63% | – | – | –
4 | NYLLYVSNF (listed as Homo sapiens) [MST1R-001] | 14% | 50% | – | – | –
5 | SYIIDPLNL (listed as Homo sapiens) [PROM1-001] | 26% | 83% | – | – | –
6 | TLGEFLKLDRERAKN (listed as Homo sapiens) [IMA-BIR-002] | – | – | promiscuous binding of IMA-BIR-002 to HLA-DR1, 3, 4 and 11 | 12 patients | 16 patients
7 | AYLVYTDRL (listed as Homo sapiens) [PPAP2C-001] | 54% | 100% | – | – | –
8 | NYLPFIMEL (listed as Homo sapiens) [UCHL5-001] | 14% | 75% | – | – | –
9 | RFLSGIINF (listed as Homo sapiens) [NUF2-002] | 4% | 50% | – | – | –
10 | VYGIRLEHF (listed as Homo sapiens) [NUF2-001] | 25% | 100% | – | – | –
11 | FYISPVNKL (listed as Homo sapiens) [AVL9-001] | 50% | 100% | – | – | –
12 | YYNAAGFNKL (listed as Homo sapiens) [UQCRB-001] | 38% | 100% | – | – | –
13 | TYGNLLDYL (listed as Homo sapiens) [ABL1-001] | 13% | 50% | – | – | –
14 | VWSDVTPLIF (VWSDVTPLTF; listed as Homo sapiens) [MMP11-001] | 11% | 33% | – | – | –
15 | SYNPLWLRI (listed as Homo sapiens) [ASPM-002] | 31% | 63% | – | – | –
16 | HYKPTPLYF (listed as Homo sapiens) [SMC4-001] | 9% | 75% | – | – | –
